Data as given in ChEMBL document CHEMBL3758182, “Synthesis of Alocasin A” (J Nat Prod, 2015).

What was measured:
[1] = Antiproliferative activity against human Hep2 cells; format: functional, cell-based; details: HEp-2
[2] = tested on: HepG2; assay: Antiproliferative activity against human HepG2 cells; format: functional, cell-based

SMILES: Oc1ccc2[nH]cc(-c3cnc(-c4c[nH]c5ccc(O)cc45)cn3)c2c1
- IC50 [1]: 151 µM
- IC50 [2]: 85 µM
